Data reported in BindingDB's records for doi:10.7270/Q2DB809V (Burnham Center For Chemical Genomics, 2010).
pIC50: −log10 of the molar value.

Target: Intestinal-type alkaline phosphatase (Mus musculus, UniProt P24822)
Test: PubChem AID 488785

Intestinal-type alkaline phosphatase, sequence (P24822 whole entry, looked up): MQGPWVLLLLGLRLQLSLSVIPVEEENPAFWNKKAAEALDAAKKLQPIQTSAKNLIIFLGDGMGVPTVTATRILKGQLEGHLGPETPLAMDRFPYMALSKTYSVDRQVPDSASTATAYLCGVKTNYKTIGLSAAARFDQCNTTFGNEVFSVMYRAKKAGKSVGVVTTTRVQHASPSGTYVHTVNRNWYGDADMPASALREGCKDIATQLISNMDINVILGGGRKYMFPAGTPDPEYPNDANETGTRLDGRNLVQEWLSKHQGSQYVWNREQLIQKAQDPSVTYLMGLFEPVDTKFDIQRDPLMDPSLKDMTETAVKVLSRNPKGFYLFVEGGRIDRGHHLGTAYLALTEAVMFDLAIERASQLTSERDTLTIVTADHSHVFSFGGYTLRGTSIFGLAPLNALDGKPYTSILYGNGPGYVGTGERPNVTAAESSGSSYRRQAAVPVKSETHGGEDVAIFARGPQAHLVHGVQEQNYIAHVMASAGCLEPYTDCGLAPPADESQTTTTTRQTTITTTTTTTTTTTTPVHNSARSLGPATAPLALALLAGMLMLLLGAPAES

Structure (SMILES) | pIC50
Oc1ccc(CN=Nc2cc(N3CCCC3)nc(N3CCCC3)n2)cc1O [(4Z)-4-[[2-(2,6-dipyrrolidin-1-ylpyrimidin-4-yl)hydrazinyl]methylidene]-2-hydroxycyclohexa-2,5-dien-1-one] | 5.82
NS(=O)(=O)c1cc(C(=O)NNC2=c3ccccc3=NC2=O)ccc1Cl [2-chloro-5-[[(2-oxoindol-3-yl)amino]carbamoyl]benzenesulfonamide] | 4.37
Cc1ccc(Cl)c2c1NC(=O)/C2=C1/NC(=S)NC1=O | 6.69
C#CCOCCOCCOCCNc1nc(N2CCN(C(=O)CCCCCCCCCCNC(=O)[C@H]([C@@H](C)CC)n3cc(CCCCN=C(N)N)nn3)CC2)nc(N2CCN(C(=O)CCCCCCCCCCNC(=O)[C@@H]([C@H](C)O)n3cc(C)nn3)CC2)n1 [GT-RI] | 6.44
COc1cc(C=Nn2c(O)csc2=S)ccc1O [3-[[(E)-(3-methoxy-4-oxidanylidene-cyclohexa-2,5-dien-1-ylidene)methyl]amino]-2-sulfanylidene-1,3-thiazolidin-4-one] | 5.66
Nc1nnc(CC(=O)N/N=C/C2C=C([N+](=O)[O-])C=C(Br)C2=O)s1 (stereo unspecified) [2-(5-azanyl-1,3,4-thiadiazol-2-yl)-N'-[(E)-(5-bromanyl-3-nitro-6-oxidanylidene-cyclohexa-2,4-dien-1-ylidene)methyl]ethanehydrazide] | 5.55
CC1NON=C1C(=O)NN=CC1=CC(=O)C(=O)C=C1 (stereo unspecified) [4-Methyl-furazan-3-carboxylic acid (3,4-dihydroxy-benzylidene)-hydrazide] | 5.00
Cc1ccc(/C=C2\SC(=S)N(/N=C/C3C=C([N+](=O)[O-])C=CC3=O)C2=O)o1 (stereo unspecified) [(5Z)-5-[(5-methylfuran-2-yl)methylidene]-3-[[(E)-(3-nitro-6-oxocyclohexa-2,4-dien-1-ylidene)methyl]amino]-2-sulfanylidene-1,3-thiazolidin-4-one] | 4.21
C#CCOCCOCCOCCNc1nc(N2CCN(C(=O)CCCCCCCCCCNC(=O)Cn3cc(CCCCCN)nn3)CC2)nc(N2CCN(C(=O)CCCCCCCCCCNC(=O)Cn3cc(C[C@@H](C)O)nn3)CC2)n1 [KG-TG] | 5.20
Oc1ccc(C=Nn2c(O)csc2=S)c(O)c1O [3-[[(E)-[2,3-bis(oxidanyl)-4-oxidanylidene-cyclohexa-2,5-dien-1-ylidene]methyl]amino]-2-sulfanylidene-1,3-thiazolidin-4-one] | 5.38

Further lines, results first:

pIC50 | Structure (SMILES)
5.08 | COc1cc(C=CC(=O)CC(=O)C=Cc2ccc(O)cc2)ccc1O [demethoxycurcumin]
6.67 | O=C1C=CC(C=NNC(=S)Nc2ccccc2[N+](=O)[O-])C=C1O (stereo unspecified) [MLS000417596]
5.11 | O=C(Nn1c(O)csc1=S)C(=O)Nn1c(O)csc1=S [SMR000349781]
5.98 | O=C1C=CC(/C=C/c2nc(O)c([N+](=O)[O-])c(=O)[nH]2)C=C1O (stereo unspecified) [SMR000524347]
5.23 | C#CCOCCOCCOCCNc1nc(N2CCN(C(=O)CCCCCCCCCCNC(=O)[C@@H](CCSC)n3cc(CCO)nn3)CC2)nc(N2CCN(C(=O)CCCCCCCCCCNC(=O)[C@H]([C@@H](C)CC)n3cc(CCCCCN)nn3)CC2)n1 [MLS002153719]
4.77 | C#CCOCCOCCOCCNc1nc(N2CCN(C(=O)CCCCCCCCCCNC(=O)[C@@H](CCC(=O)O)n3cc(CCCCCN)nn3)CC2)nc(N2CCN(C(=O)CCCCCCCCCCNC(=O)[C@H]([C@@H](C)CC)n3cc(CCCCCN)nn3)CC2)n1 [KI-KE]
